Data on 1 molecule can be found in patent publication US9018216B2, “Solid forms of (R)-2-(5-(2-(3-ethylureido)-6-fluoro-7-(tetrahydrofuran-2-yl)-1H-benzo[d]imidazol-5-yl)pyrimidin-2-yl)propan-2-yl dihydrogen phosphate and salts thereof” (priority 2012, dated 2015).

Like-named read-outs stand apart in the source and are kept apart here. Bounds are passed on as bounds.

Data set [1] is described as follows: Stability of the solid forms (net increase in total impurities at 40 C/30% RH). The data set is classed as physicochemical. To be noted: 17 days.
For another data set, the system named is Escherichia coli AG100. Put plainly: Gyrase MIC determination against Gram negatives using microdilution broth method (Protocol 2). The following applies: read-out: MIC. It is filed as cell-based. Here is the method:
Compounds of this invention were tested for antimicrobial activity by susceptibility testing in liquid media. […] The specific protocols used were as follows:
Protocol 2: Gyrase MIC Determination of Compounds Against Gram Negatives Using Microdilution Broth Method
Strains (MHII Media for all; Broth and Agar): • 1. Escherichia coli AG100 WT • 2. Escherichia coli AG100 tolC • 3. […] Haemophilus influenzae Rd0894 (AcrA−)
Inoculum Prep: • 1. Using the BBL Prompt kit, picked 5 big or 10 small, well separated colonies from cultures grown on agar medium and inoculated 1 mL sterile saline that came with the kit. • 2. Vortexed the wells for ˜30 s to give a suspension of ˜10^8 cells/mL. Actual density could be confirmed by plating out dilutions of this suspension. • 3. Diluted the suspension 1/100 by transferring 0.15 mL of cells into 15 mL (˜10^6 cells/mL) sterile broth (see below) for each plate of compounds tested, swirled to mix. […] Used 50 μl cells (˜5×10^4 cells) to inoculate each microtiter well containing 50 μl of the drug diluted in broth (see below).
Drug Dilutions, Inoculation, MIC Determination: • 1. […] Diluted drug/compound stocks to 200× desired final concentration in 50 μL DMSO. If starting concentration of MICs was 8 μg/mL final concentration, then required 6.25 μL of stock+43.75 μL DMSO. Each 200× stock was placed in a separate row of column 1 of a new 96 well microtiter plate. • 3. Added 25 μL of DMSO to columns 2-12 of all rows of the microtiter plate containing 200× compound stocks and serially diluted 25 μL from column 1 through column 11, changed tips after each column. i.e. 25 μL compound+25 μL DMSO=2× dilution. Left “no compound” DMSO well at the end of the series for control. • 4. For each strain tested, prepared two microtiter plates with 50 μL of MHII broth using a Matrix pipettor. • 5. Transferred 0.5 μL of each dilution (w/Matrix auto-pipettor) to 50 μL of medium/microtiter well prior to the addition of 50 μl of cells. The usual starting concentration of compound was 8 μg/mL after the 1/200 dilution into medium+cells−compound concentrations decreased in 2× steps across the rows of a microtiter plate. All MICs were done in duplicate. • 6. All wells were inoculated with 50 μl of diluted cell suspension (see above) to a final volume of 100 μl. • 7. After inoculum was added, each well was mixed thoroughly with a manual multichannel pipettor; same tips were used going from low to high concentration of drug in the same microtiter plate. • 8. Plates were incubated at 37° C. for at least 18 hours. • 9.
Examined the test plates after the correct incubation time and read the MIC endpoint at the concentration where a marked reduction occurred in the appearance of growth on the test plate as compared to that of growth on the positive control plates.

The subject of data set [2] is Streptococcus pneumoniae ATCC 10015. Put plainly: Gyrase MIC determination using microdilution broth method (Protocol 1). It is filed as cell-based. To be noted: ATCC10015, Streptococcus pneumoniae ATCC 10015, with 3% Laked Horse Blood.
The subject of data set [3] is Enterococcus faecium ATCC 49624. The data set is described as above. The data set is classed as cell-based. The following applies: ATCC49624, Enterococcus faecium ATCC 49624 with 3% Laked Horse Blood, read-out: MIC.
The test system of data set [4] is Enterococcus faecalis ATCC 29212. Described as above. The data set is classed as cell-based. The following applies: Enterococcus faecalis, ATCC29212, Enterococcus faecalis ATCC 29212, with 3% Laked Horse Blood, read-out: MIC.
Data set [5] relates to Staphylococcus aureus ATCC 29213. Put plainly: microbe, parasite or virus in culture. To be noted: Staphylococcus aureus, Protocol 1. It is filed as cell-based.

As to `CCNC(=O)Nc1nc2cc(-c3cnc(C(C)(C)OP(=O)([O-])[O-])nc3)c(F)c([C@H]3CCCO3)c2[nH]1.[Na+].[Na+]` [Form X, disodium (R)-2-(5-(2-(3-ethylureido)-6-fluoro-7-(tetrahydrofuran-2-yl)-1H-benzo[d]imidazol-5-yl)pyrimidin-2-yl)propan-2-yl phosphate], the “Net % increase in total impurities” value in data set [1] is recorded as 0.59%. Moreover, the MIC is over 16 µg/mL with Escherichia coli AG100 (Escherichia coli AG100 WT); 2 µg/mL in the data set with Escherichia coli AG100 (Escherichia coli, AG100, Escherichia coli AG100 tolC); 0.25 µg/mL in data set [2]; 4 µg/mL in data set [3]; 2 µg/mL in data set [4]; over 16 µg/mL in data set [5] (ATCC29213, Staphylococcus aureus ATCC 29213 GyrB T173I). Also, the MIC in data set [5] (ATCC29213, Staphylococcus aureus ATCC 29213 with 50% Mouse Serum) came to 2 µg/mL.
